Experimental data: patent US11788147B2, “Markers of triple-negative breast cancer and uses thereof” (Vanderbilt University, priority 2011, dated 2023)
Read-outs that look alike come from different tables or passages of the source.

Tests used:
LAR TNBC cell lines = experiment: Cell proliferation/viability assay (alamarBlue) and IC50 determination; format: cell-based, human; details: 72 hours
Method: (§1) Cell proliferation/viability assays and IC50 determinations. All cell lines and culture conditions used can be found in Supplemental Methods (Table 5). Short tandem repeat (STR) DNA fingerprinting analysis was performed on all TNBC cell lines used in this study (Cell Line Genetics). […] Breast cancer cell lines and HMECs were seeded (3,000-10,000 cells) in quadruplicate wells in 96-well plates. […] Medium was then replaced with either fresh medium (control) or medium containing half-log serial dilutions of the following drugs: 0.3-30 μM olaparib (ChemieTek), 0.3-30 μM veliparib (ChemieTek), 1-100 μM bicalutamide (IPR Pharmaceutical), 0.3-30 μM cisplatin (APP Pharmaceutical), 3-300 nM NVP-BEZ235 (Chemdea), 10-1000 nM 17-DMAG (ChemieTek), and 0.1-10 μM dasatinib (LC Laboratories). Viability was determined from measuring fluorescent intensity after metabolic reduction of alamarBlue in the presence/absence of the drug after 72 hours. Viability assays were performed in triplicate, and replicates were normalized to untreated wells. […] For analysis of cell-line drug assays, data generated from the different cell lines representative of TNBC subtypes were compared using the nonparametric Mann-Whitney U test. All analyses and graphic representations were performed using Prism software (version 4.0c; GraphPad Software), and values are represented as the mean±SEM.

[1] = test system: basal-like (BL1 and BL2) TNBC cell lines; experiment: as above; format: cell-based, human
Method: as §1

[2] = test system: mesenchymal-like (M and MSL) TNBC cell lines; experiment: as above; format: cell-based, human; details: 72 hours
Method: (§2) Cell proliferation/viability assays and IC50 determinations. All cell lines and culture conditions used can be found in Supplemental Methods (Table 5). Short tandem repeat (STR) DNA fingerprinting analysis was performed on all TNBC cell lines used in this study (Cell Line Genetics). […] Breast cancer cell lines and HMECs were seeded (3,000-10,000 cells) in quadruplicate wells in 96-well plates. […] Viability was determined from measuring fluorescent intensity after metabolic reduction of alamarBlue in the presence/absence of the drug after 72 hours. Viability assays were performed in triplicate, and replicates were normalized to untreated wells. […] For analysis of cell-line drug assays, data generated from the different cell lines representative of TNBC subtypes were compared using the nonparametric Mann-Whitney U test. All analyses and graphic representations were performed using Prism software (version 4.0c; GraphPad Software), and values are represented as the mean±SEM.

[3] = test system: mesenchymal-like TNBC cell lines; experiment: Cell proliferation/viability assay and IC50 determination (Example 3); format: cell-based, human; details: 72 hours; basal-like, mesenchymal-like and normal cells compared
Method: Cell proliferation/viability assays and IC50 determinations. All cell lines were maintained in culture as previously described herein. Breast cancer cell lines and HMECs were seeded (3,000-10,000 cells) in quadruplicate wells in 96-well plates. Media was then replaced with either fresh media (control) or media containing half-log serial dilutions of the following drugs: Sorafenib, OSi-906, BMS-754807 and PF2341066 purchased from Selleck Chemicals (Houston, TX) Viability was determined from measuring fluorescent intensity after metabolic reduction of Alamar Blue in the presence/absence of drug after 72 hours. Viability assays were performed in triplicate and replicates were normalized to untreated wells. Inhibitory concentration (IC50) values were determined after double-log transformation of dose response curves.

MDA-MB-453 cells = experiment: Sub-G1 (sub 2N DNA) fraction by FACs analysis; format: cell-based, human
Method: FIGS. 31A-31B: Combined inhibition of AR and PI3K increases apoptotic cell death in AR+TNBC cell lines. (31A) Bar graphs display relative caspase 3/7 activity (RLU) normalized to viable cell number 48 hrs after treatment with vehicle, positive control (3 μM adriamycin, ADR), 50 μM bicalutamide (CDX) and 3 μM GDC-0941 or 1 μM GDC-0980 alone or in combination with CDX. (31B) Histograms show representative cell cycle analysis of MDA-MB-453 cells treated with similar conditions as above. Indicated percentages represent the fraction of hypodiploid DNA (sub-G1), indicative of late stage apoptotic DNA fragmentation.
In addition to caspase activation, the percentage of sub 2N DNA (sub-G1)-containing cells (indicative of late stage apoptotic DNA fragmentation) was quantitated by FACs analysis. […] Therefore, the decreased viability of AR-positive TNBC cell lines treated with a combination of AR and PI3K inhibitors can be, in part, attributed to apoptosis.

[4] = test system: AR-expressing TNBC cell lines; experiment: Viability of AR-expressing TNBC cell lines, PI3K inhibitors alone or with bicalutamide (2-D); format: cell-based, human; details: alone, 72 h
Method: All cell lines were maintained in culture as previously described (JCI ref). Breast cancer cell lines and HMECs were seeded (3,000-10,000 cells) in quadruplicate wells in 96-well plates. […] Viability was determined from measuring fluorescent intensity after metabolic reduction of Alamar Blue in the presence/absence of drug after 72 hours. Viability assays were performed in triplicate and replicates were normalized to untreated wells.

[5] = test system: CAL-148, MFM-223 and MDA-MB-453 cells; experiment: 3-D forced suspension viability assay; format: cell-based, human; details: increasing doses, alone, 72 h; to a lesser degree than in 2-D
Method: CAL-148, MFM-223 and MDA-MB-453 cells were plated (10,000 cells/well) in quadruplicate into 96-well plates coated with 0.9% agarose diluted in corresponding media. Following 5 d of growth, cells were then treated with increasing half-log concentrations of GDC-0941 (10-3000 nM), GDC0980 (1 nM −300 nM), BKM120 (10 nM-3000 nM) and NVP-BEZ235 (1 nM-300 nM) alone or in combination with 25 μM bicalutamide (CDX) for an additional 72 h, upon which cells were imaged and viability determined by Alamar blue.

[6] = test system: p-AKT, p-S6 and AR in AR-expressing TNBC cell lines; experiment: Immunoblot analysis of the PI3K/mTOR pathway and AR; format: cell-based, human; details: for activated AKT: 24 h or 48 h
Method: Immunoblot analysis was performed on cell lystates from untreated cells or cells treated alone or in combination with CDX, GDC-0941 and GDC-0980 to evaluate attenuation of the PI3K/mTOR pathway. […] Cells were trypsinized, lysed and relative protein expression was determined by Western blot as previously described (JCI reference) with the following antibodies; the AR polyclonal antibody, SC-N20 (Santa Cruz Biotechnology), pS[…]/236 (Cell Signaling #4856), S6 (Cell Signaling #2317), pAKT-5473 (Cell Signaling #9271), AKT (Cell Signaling #9272), PARP (Cell Signaling #9542) and GAPDH (Millipore).

[7] = test system: activated caspase 3/7 in AR-positive TNBC cell lines; experiment: Caspase 3/7 activity (Caspase-Glo); format: cell-based, human; details: 48 h; ADR 3 μM, bicalutamide 50 μM, GDC-0941 3 μM, GDC-0980 1 μM
Method: Cell lines were seeded in triplicate in 96-well plates. Media was removed and replaced with media containing vehicle (control) or indicated drugs. After 48 hrs, apoptosis was determined by measuring luciferase from activated caspase 3/7 upon addition of Caspase-Glo reagent (Promega, Madison, WI). Relative levels of caspase activity were normalized to viable cell number determined by metabolic reduction of Alamar blue.

[8] = test system: CAL-148 and MDA-MB-453 xenograft tumors; experiment: Xenograft tumor studies (Example 2); format: in vivo, mice; details: single agent alone; bicalutamide 100 mg/kg/d, GDC0980 7.5 mg/kg/d, NVP-BEZ235 50 mg/kg/d p.o.
Method: Five-week-old female athymic nude-Foxnlnu mice (Harlan Sprague-Dawley) were injected (s.c.) with either ˜4×10^6 (CAL-148) or ˜10×10^6 (MDA-MB-453) cells suspended in media (200 μL) into each flank using a 22-gauge needle. Once tumors reached a volume of 25-50 mm^3, mice were randomly allocated to treatment or vehicle arms. Treatments included bicalutamide p.o. (100 mg/kg/d), GDC0980 p.o. (7.5 mg/kg/d) in 5% DMSO, 0.5% carboxymethyl cellulose (MCT) or NVP-BEZ235 p.o. (50 mg/kg/d) in 0.5% MCT or the combination of bicalutamide and either GDC-0980 or NVP-BEZ235 according to the above concentrations. Tumor diameters were serially measured at the indicated times with digital calipers and tumor volumes were calculated as width^2×length/2.

[9] = test system: SUM185PE, CAL-148, CAL-51 and SUM159PT xenograft tumors; experiment: Xenograft tumor studies (Example 1), PIK3CA-mutant lines; format: in vivo, mice; details: NVP-BEZ235 per oral 50 mg/kg/d, approximately 3 weeks
Method: Xenograft tumor studies. Five-week-old female athymic nude-Foxnlnu mice (Harlan Sprague-Dawley) were injected (s.c.) with either approximately 5×10^6 (CAL-51, HCC1806, MDA-MB-468, and SUM185PE) or approximately 10×10^6 (CAL-148 and SUM159PT) cells suspended in medium (200 μl) into each flank using a 22-gauge needle. […] Once tumors reached a volume of 25-50 mm^3, mice were randomly allocated to treatment or vehicle arms. Treatments included bicalutamide per oral (100 mg/kg/d), cisplatin i.p. (8 mg/kg/wk), or NVP-BEZ235 per oral (50 mg/kg/d) in 1:9 N-methylpyrolidone: PEG300. Tumor diameters were serially measured at the indicated times with digital calipers, and tumor volumes were calculated as width^2×length/2. Data points reflect the means and SEM for 16 tumors per treatment.

TNBC cell lines = experiment: Cell proliferation/viability assay (alamarBlue), panel of TNBC cell lines (Example 1); format: cell-based, human
Method: as §2

[10] = test system: BRCA2-mutant cell line HCC1599; experiment: Cell proliferation/viability assay (alamarBlue) and IC50 determination; format: cell-based; details: Homo sapiens, 72 hours, viability
Method: as §1

[11] = test system: BRCA1-mutant MDA-MB-436 cell line; experiment: as above; format: cell-based; details: Homo sapiens, 72 hours, viability
Method: as §1

[12] = test system: BRCA1-null cell line HCC1937; experiment: as above; format: cell-based; details: Homo sapiens, 72 hours, viability
Method: as §1

[13] = 72 hours, read-out: average IC50

With `CO[C@H]1/C=C\C=C(/C)C(=O)NC2=CC(=O)C(NCCN(C)C)=C(C[C@@H](C)C[C@H](OC)[C@H](O)[C@@H](C)/C=C(\C)[C@@H]1OC(N)=O)C2=O` [17-DMAG, 17-dimethylaminoethylamino-17-demethoxy-geldanamycin] the IC50 (LAR TNBC cell lines; LAR cell lines) was 0.016 µM, the IC50 [1, 13] was 0.081 µM and the IC50 ([2]; mesenchymal-like cell lines) was 0.117 µM.
For `C[C@@]1(C(=O)Nc2ccc(F)nc2)CCCN1c1nc(Nc2cc(C3CC3)n[nH]2)c2cccn2n1` [BMS-754807], the “viability (half-maximal inhibitory concentration) across TNBC subtypes” value [3] was “selectively inhibits viability of mesenchymal-like TNBC cell lines”.
`CS(=O)(=O)N1CCN(Cc2cc3nc(-c4cccc5[nH]ncc45)nc(N4CCOCC4)c3s2)CC1` [GDC-0941] was tested, and the “sub-G1 fraction” value (MDA-MB-453 cells; 48 h, alone) was “higher sub-G1 fraction”, the “viability, single agent” value [4] was “displayed efficacy” and the “cell aggregate size and viability” value [5] was “decreased cell aggregate size and viability”. The “activated AKT” value [6] was “decreased activated AKT” and the “caspase 3/7 activation” value [7] was “caused caspase activation”.
With `Cc1c(CN2CCN(C(=O)[C@H](C)O)CC2)sc2c(N3CCOCC3)nc(-c3cnc(N)nc3)nc12` [GDC-0980] the “sub-G1 fraction” value (MDA-MB-453 cells; 48 h, alone) was “higher sub-G1 fraction”, the “viability, single agent” value [4] was “displayed efficacy” and the “cell aggregate size and viability” value [5] was “decreased cell aggregate size and viability”. For the same compound, the tumor growth [8] was “significantly decreased tumor growth”, the “activated AKT” value [6] was “decreased activated AKT” and the AR levels ([6]; alone) was “decreased AR levels”. The “mTOR activity as measured by levels of phosphorylated S6” value ([6]; compared with GDC-0941) was “more effective at decreasing mTOR activity” and the “caspase 3/7 activation” value [7] was “caused caspase activation”.
`Cn1c(=O)n(-c2ccc(C(C)(C)C#N)cc2)c2c3cc(-c4cnc5ccccc5c4)ccc3ncc21` [NVP-BEZ235] showed an IC50 (LAR TNBC cell lines; Homo sapiens, LAR cell lines) of 0.037 µM, an IC50 [1, 13] of 0.116 µM and an IC50 ([1]; Homo sapiens, 72 h, read-out: average IC50) of 0.201 µM. The IC50 ([2]; Homo sapiens, mesenchymal-like cell lines) was 0.044 µM, the xenograft tumor response [9] was “partial response or complete” and the tumor growth [8] was “significantly decreased tumor growth”. For the same compound, the “sensitivity (viability)” value (TNBC cell lines; TNBC cell lines with activated PI3K/AKT signaling due to PIK3CA mutations or PTEN deficiency) was “highly sensitive”.
With `C[C@]1(O)C[C@@H](c2nc(-c3ccc4ccc(-c5ccccc5)nc4c3)c3c(N)nccn32)C1` [OSI-906] the “viability (half-maximal inhibitory concentration) across TNBC subtypes” value [3] was “selectively inhibits viability of mesenchymal-like TNBC cell lines”.
In the case of `C[C@@H](Oc1cc(-c2cnn(C3CCNCC3)c2)cnc1N)c1c(Cl)ccc(F)c1Cl` [PF2341066], the “viability (half-maximal inhibitory concentration) across TNBC subtypes” value [3] is reported as “selectively inhibits viability of mesenchymal-like TNBC cell lines”.
With `COc1cccc2c1C(=O)c1c(O)c3c(c(O)c1C2=O)C[C@@](O)(C(=O)CO)C[C@@H]3O[C@H]1C[C@H](N)[C@H](O)[C@H](C)O1` [adriamycin] the “caspase 3/7 activation” value [7] was “robust caspase activation”.
Compound `CC(O)(CS(=O)(=O)c1ccc(F)cc1)C(=O)Nc1ccc(C#N)c(C(F)(F)F)c1` (centres unmarked) [bicalutamide] has a sub-G1 fraction (MDA-MB-453 cells; 48 h after treatment, increase from 5.25%) of 18.44%, an IC50 (LAR TNBC cell lines; Homo sapiens, LAR lines) of 227 µM and an IC50 ([1]; Homo sapiens, 72 h, read-out: IC50) of over 600 µM. For the same compound, the IC50 ([2]; Homo sapiens, subset of mesenchymal-like cell lines that express low levels of AR (HS578T, BT549, CAL-51, MDA-MB-231)) was 361 µM and the IC50 (TNBC cell lines; Homo sapiens, majority of TNBC cell lines, read-out: IC50 not achieved using the highest dose) was over 500 µM.
`Cc1nc(Nc2ncc(C(=O)Nc3c(C)cccc3Cl)s2)cc(N2CCN(CCO)CC2)n1` [dasatinib] gave an IC50 (LAR TNBC cell lines; Homo sapiens, LAR lines) of 88 µM and an IC50 ([2]; Homo sapiens, mesenchymal-like subtypes (M and MSL)) of 22 µM.
In the case of `O=C(c1cc(Cc2n[nH]c(=O)c3ccccc23)ccc1F)N1CCN(C(=O)C2CC2)CC1` [olaparib], the IC50 [10] is reported as over 100 µM, the IC50 [11] is reported as 14 µM and the IC50 [12] is reported as over 100 µM.
For `CNC(=O)c1cc(Oc2ccc(NC(=O)Nc3ccc(Cl)c(C(F)(F)F)c3)cc2)ccn1` [sorafenib], the “viability (half-maximal inhibitory concentration) across TNBC subtypes” value [3] was “selectively inhibits viability of mesenchymal-like TNBC cell lines”.
With `C[C@]1(c2nc3c(C(N)=O)cccc3[nH]2)CCCN1` [veliparib] the IC50 [10] was over 30 µM, the IC50 [11] was 18 µM and the IC50 [12] was 4 µM.
